# Assay results published in PMC5218480 (PLoS ONE, 2017).
# Tested on: MV-4-11 cells
# Assay: Gene expression microarray analysis (Affymetrix PrimeView) and GSEA
# Type: cell-based, human
# Design: RFU PODN (11730768_x_at) / Fold change /veh PODN (11730768_x_at) / RFU LINC00158 (11744669_a_at) / Fold change /veh LINC00158 (11744669_a_at) / RFU DUSP10 (11751237_a_at) / Fold change /veh DUSP10 (11751237_a_at) / RFU ID3 (11757404_x_at) / Fold change /veh ID3 (11757404_x_at) / RFU PLEKHG5 (11737974_s_at) / Fold change /veh PLEKHG5 (11737974_s_at) / RFU LRRC4B (11730491_at) / Fold change /veh LRRC4B (11730491_at) / RFU GIMAP4 (11747438_a_at) / Fold change /veh GIMAP4 (11747438_a_at) / RFU KRT8 (11758183_x_at) / Fold change /veh KRT8 (11758183_x_at) / RFU CNN1 (11734310_a_at) / Fold change /veh CNN1 (11734310_a_at) / RFU VPS37D (11726825_at) / Fold change /veh VPS37D (11726825_at) / RFU C10orf10 (11716522_x_at) / Fold change /veh C10orf10 (11716522_x_at) / RFU KIR2DL2 /// KIR2DL4 /// KIR2DL5A /// KIR2DL5B /// KIR2DS1 /// KIR2DS2 /// KIR2DS3 /// KIR2DS4 /// KIR3DL3 /// KIR3DL3 /// KIR3DS1 (11738374_at) / Fold change /veh KIR2DL2 /// KIR2DL4 /// KIR2DL5A /// KIR2DL5B /// KIR2DS1 /// KIR2DS2 /// KIR2DS3 /// KIR2DS4 /// KIR3DL3 /// KIR3DL3 /// KIR3DS1 (11738374_at) / RFU C1QL1 (11718748_at) / Fold change /veh C1QL1 (11718748_at) / RFU TMPRSS4 (11747572_a_at) / Fold change /veh TMPRSS4 (11747572_a_at) / RFU HAMP (11756126_x_at) / Fold change /veh HAMP (11756126_x_at) / RFU RNFT2 (11725882_a_at) / Fold change /veh RNFT2 (11725882_a_at) / RFU NR4A2 (11747474_a_at) / Fold change /veh NR4A2 (11747474_a_at) / RFU ABCC12 (11746883_a_at) / Fold change /veh ABCC12 (11746883_a_at) / RFU TMEM136 (11760407_x_at) / Fold change /veh TMEM136 (11760407_x_at) / RFU CLDN22 /// WWC2 (11732394_at) / Fold change /veh CLDN22 /// WWC2 (11732394_at) / RFU HLA-DPB1 (11760878_x_at) / Fold change /veh HLA-DPB1 (11760878_x_at) / RFU SPINT1 (11716480_a_at) / Fold change /veh SPINT1 (11716480_a_at) / RFU GAP43 (11754022_s_at) / Fold change /veh GAP43 (11754022_s_at) / RFU A4GNT (11735810_at) / Fold change /veh A4GNT (11735810_at) / RFU PRB3 (11715151_x_at) / Fold change /veh PRB3 (11715151_x_at) / RFU TUBB4B (11761932_at) / Fold change /veh TUBB4B (11761932_at) / RFU CAPN14 (11732068_a_at) / Fold change /veh CAPN14 (11732068_a_at) / RFU TMCC2 (11721928_a_at) / Fold change /veh TMCC2 (11721928_a_at) / RFU IRGQ (11745062_a_at) / Fold change /veh IRGQ (11745062_a_at) / RFU FAM174B (11720279_a_at) / Fold change /veh FAM174B (11720279_a_at) / RFU TMPRSS4 (11748680_a_at) / Fold change /veh TMPRSS4 (11748680_a_at) / RFU FAM212B (11763350_a_at) / Fold change /veh FAM212B (11763350_a_at) / RFU PLEKHG5 (11743358_a_at) / Fold change /veh PLEKHG5 (11743358_a_at) / RFU ZSCAN30 (11745921_a_at) / Fold change /veh ZSCAN30 (11745921_a_at) / RFU CMKLR1 (11741424_a_at) / Fold change /veh CMKLR1 (11741424_a_at) / RFU LOC101060620 /// MAPK8IP1 (11723275_at) / Fold change /veh LOC101060620 /// MAPK8IP1 (11723275_at) / RFU SPTSSB (11747773_x_at) / Fold change /veh SPTSSB (11747773_x_at) / RFU PRSS12 (11739890_at) / Fold change /veh PRSS12 (11739890_at) / RFU BIN1 (11741810_x_at) / Fold change /veh BIN1 (11741810_x_at) / RFU WNT11 (11732464_a_at) / Fold change /veh WNT11 (11732464_a_at) / RFU C10orf10 (11716521_a_at) / Fold change /veh C10orf10 (11716521_a_at) / RFU C5orf56 (11738089_at) / Fold change /veh C5orf56 (11738089_at) / RFU CYB561 (11721691_x_at) / Fold change /veh CYB561 (11721691_x_at) / RFU ANKRD19P (11752326_a_at) / Fold change /veh ANKRD19P (11752326_a_at) / RFU OR2T12 /// OR2T33 /// OR2T8 (11738714_s_at) / Fold change /veh OR2T12 /// OR2T33 /// OR2T8 (11738714_s_at) / RFU VCAN (11748164_a_at) / Fold change /veh VCAN (11748164_a_at) / RFU JSRP1 (11732532_at) / Fold change /veh JSRP1 (11732532_at) / RFU KRTAP10-11 (11738290_x_at) / Fold change /veh KRTAP10-11 (11738290_x_at) / RFU MYO3A (11730013_a_at) / Fold change /veh MYO3A (11730013_a_at) / RFU EBF3 (11725865_a_at) / Fold change /veh EBF3 (11725865_a_at) / RFU CAMK2N1 (11719241_x_at) / Fold change /veh CAMK2N1 (11719241_x_at) / RFU C5orf56 (11738088_a_at) / Fold change /veh C5orf56 (11738088_a_at) / RFU OLFML3 (11715873_a_at) / Fold change /veh OLFML3 (11715873_a_at) / RFU LOC100653217 /// NTM (11731650_a_at) / Fold change /veh LOC100653217 /// NTM (11731650_a_at) / RFU MAPK11 (11762145_a_at) / Fold change /veh MAPK11 (11762145_a_at) / RFU FIZ1 (11724087_x_at) / Fold change /veh FIZ1 (11724087_x_at) / RFU OASL (11726364_x_at) / Fold change /veh OASL (11726364_x_at) / RFU SOX15 (11748057_x_at) / Fold change /veh SOX15 (11748057_x_at) / RFU CD79A (11719716_a_at) / Fold change /veh CD79A (11719716_a_at) / RFU HIST1H1D (11736915_at) / Fold change /veh HIST1H1D (11736915_at) / RFU CASKIN2 (11723855_a_at) / Fold change /veh CASKIN2 (11723855_a_at) / RFU LOC730098 (11760151_x_at) / Fold change /veh LOC730098 (11760151_x_at) / RFU OR4N2 (11742367_at) / Fold change /veh OR4N2 (11742367_at) / RFU PRRT2 (11749266_a_at) / Fold change /veh PRRT2 (11749266_a_at) / RFU SNX32 (11753110_a_at) / Fold change /veh SNX32 (11753110_a_at) / RFU CDHR5 (11726645_a_at) / Fold change /veh CDHR5 (11726645_a_at) / RFU RCAN1 (11760418_a_at) / Fold change /veh RCAN1 (11760418_a_at) / RFU FAM167A (11723789_a_at) / Fold change /veh FAM167A (11723789_a_at) / RFU FAM26E (11764081_at) / Fold change /veh FAM26E (11764081_at) / RFU ISYNA1 (11749810_s_at) / Fold change /veh ISYNA1 (11749810_s_at) / RFU ACY1 (11761880_at) / Fold change /veh ACY1 (11761880_at) / RFU 11764098_at / Fold change /veh 11764098_at / RFU SAMD14 (11745864_x_at) / Fold change /veh SAMD14 (11745864_x_at) / RFU NPB (11741838_a_at) / Fold change /veh NPB (11741838_a_at) / RFU TMPRSS6 (11731388_a_at) / Fold change /veh TMPRSS6 (11731388_a_at) / RFU KRTAP10-2 (11738614_at) / Fold change /veh KRTAP10-2 (11738614_at) / RFU ARHGAP8 /// PRR5-ARHGAP8 (11727945_x_at) / Fold change /veh ARHGAP8 /// PRR5-ARHGAP8 (11727945_x_at) / RFU KRTAP5-7 /// NADSYN1 (11734609_at) / Fold change /veh KRTAP5-7 /// NADSYN1 (11734609_at) / RFU RASL12 (11751679_a_at) / Fold change /veh RASL12 (11751679_a_at) / RFU CDKN2B (11736163_a_at) / Fold change /veh CDKN2B (11736163_a_at) / RFU PRF1 (11729649_at) / Fold change /veh PRF1 (11729649_at) / RFU, ZNF638 /// ZNF638-IT1 / Fold change vs veh, ZNF638 /// ZNF638-IT1 / RFU, PANK3 / Fold change vs veh, PANK3 / RFU, SH3YL1 / Fold change vs veh, SH3YL1 / RFU, ZEB2 / Fold change vs veh, ZEB2 / RFU, NRIP1 / Fold change vs veh, NRIP1 / RFU, PTTG1IP / Fold change vs veh, PTTG1IP / RFU, CAPN2 / Fold change vs veh, CAPN2 / RFU, MED14 / Fold change vs veh, MED14 / RFU, SNORA58 / Fold change vs veh, SNORA58 / RFU, C1orf63 / Fold change vs veh, C1orf63 / RFU, LRRFIP1 / Fold change vs veh, LRRFIP1 / RFU, NDUFAF7 / Fold change vs veh, NDUFAF7 / RFU, SLC12A2 / Fold change vs veh, SLC12A2 / RFU, IBTK / Fold change vs veh, IBTK / RFU, ESF1 / Fold change vs veh, ESF1 / Fold change vs veh, TMEM50B / RFU, TAOK1 / Fold change vs veh, TAOK1 / RFU, ACBD3 / Fold change vs veh, ACBD3 / RFU, TMA16 / Fold change vs veh, TMA16 / RFU, RWDD3 / Fold change vs veh, RWDD3 / RFU, BCAT1 / Fold change vs veh, BCAT1 / RFU, EDEM3 / Fold change vs veh, EDEM3 / RFU, TMEM33 / Fold change vs veh, TMEM33 / RFU, WDR75 / Fold change vs veh, WDR75 / RFU, AHCTF1 / Fold change vs veh, AHCTF1 / RFU, TFRC / Fold change vs veh, TFRC / RFU, ZDHHC17 / Fold change vs veh, ZDHHC17 / RFU, NOM1 / Fold change vs veh, NOM1 / RFU, ARL8B / Fold change vs veh, ARL8B / RFU, ZBTB11 / Fold change vs veh, ZBTB11 / RFU, TAMM41 / Fold change vs veh, TAMM41 / RFU, KIAA1704 /// LOC100996395 / Fold change vs veh, KIAA1704 /// LOC100996395 / RFU, ING1 / Fold change vs veh, ING1 / RFU, TRMT61B / Fold change vs veh, TRMT61B / RFU, FUBP3 / Fold change vs veh, FUBP3 / RFU, TP53 / Fold change vs veh, TP53 / RFU, TNKS2 / Fold change vs veh, TNKS2 / RFU, ZFP14 / Fold change vs veh, ZFP14 / RFU, ACTR2 / Fold change vs veh, ACTR2 / RFU, PPP3R1 / Fold change vs veh, PPP3R1 / RFU, PIK3R1 / Fold change vs veh, PIK3R1 / RFU, HNRNPA1 / Fold change vs veh, HNRNPA1 / RFU, RNF170 / Fold change vs veh, RNF170 / RFU, ZNF28 / Fold change vs veh, ZNF28 / RFU, RNGTT / Fold change vs veh, RNGTT / RFU, OGT / Fold change vs veh, OGT / RFU, BRD1 / Fold change vs veh, BRD1 / RFU, MARS / Fold change vs veh, MARS / RFU, ZNF655 / Fold change vs veh, ZNF655 / RFU, FAHD1 / Fold change vs veh, FAHD1 / RFU, BDP1 / Fold change vs veh, BDP1 / RFU, LRRCC1 / Fold change vs veh, LRRCC1 / RFU, ARID1A / Fold change vs veh, ARID1A / RFU, ZNF146 / Fold change vs veh, ZNF146 / RFU, ZNF330 / Fold change vs veh, ZNF330 / RFU, GPN3 / Fold change vs veh, GPN3 / RFU, C9orf123 / Fold change vs veh, C9orf123 / RFU, N4BP2L2 / Fold change vs veh, N4BP2L2 / RFU, ARFIP1 / Fold change vs veh, ARFIP1 / RFU, FAM179B / Fold change vs veh, FAM179B / RFU, BCL10 / Fold change vs veh, BCL10 / RFU, UHRF1BP1L / Fold change vs veh, UHRF1BP1L / RFU, BET1 / Fold change vs veh, BET1 / RFU, CNOT2 / Fold change vs veh, CNOT2 / RFU, ZNF268 / Fold change vs veh, ZNF268 / Fold change vs veh, ZNF507 / RFU, DGCR2 / Fold change vs veh, DGCR2 / RFU, WDSUB1 / Fold change vs veh, WDSUB1 / Fold change vs veh, HSP90B1 /// MIR3652 / RFU, ADSS / Fold change vs veh, ADSS / RFU, GK / Fold change vs veh, GK / RFU, ZNF148 / Fold change vs veh, ZNF148 / RFU, TAF9 / Fold change vs veh, TAF9 / RFU, SLC1A5 / Fold change vs veh, SLC1A5 / RFU, SLMO2 / Fold change vs veh, SLMO2 / RFU, ABCC4 / Fold change vs veh, ABCC4 / RFU, LOC101060439 /// RAP1B / Fold change vs veh, LOC101060439 /// RAP1B / RFU, RFX7 / Fold change vs veh, RFX7 / RFU, GTPBP10 / Fold change vs veh, GTPBP10 / RFU, CNEP1R1 / Fold change vs veh, CNEP1R1 / RFU, BIVM-ERCC5 /// ERCC5 / Fold change vs veh, BIVM-ERCC5 /// ERCC5 / RFU, ILF3 / Fold change vs veh, ILF3 / RFU 11762660_at / Fold change /veh 11762660_at / RFU VCAN (11757783_s_at) / Fold change /veh VCAN (11757783_s_at) / RFU DDX43 (11728927_at) / Fold change /veh DDX43 (11728927_at) / RFU KRT8 (11758188_x_at) / Fold change /veh KRT8 (11758188_x_at) / RFU NKD1 (11759106_at) / Fold change /veh NKD1 (11759106_at) / RFU SRD5A1 (11742802_a_at) / Fold change /veh SRD5A1 (11742802_a_at) / RFU TPSAB1 /// TPSB2 (11721975_s_at) / Fold change /veh TPSAB1 /// TPSB2 (11721975_s_at) / RFU GSTM3 (11746129_a_at) / Fold change /veh GSTM3 (11746129_a_at) / RFU IL23R (11737362_x_at) / Fold change /veh IL23R (11737362_x_at) / RFU TMEM51 (11727254_a_at) / Fold change /veh TMEM51 (11727254_a_at) / RFU PIWIL2 (11732686_x_at) / Fold change /veh PIWIL2 (11732686_x_at) / RFU ORM1 (11744905_x_at) / Fold change /veh ORM1 (11744905_x_at) / RFU CCDC152 (11743942_at) / Fold change /veh CCDC152 (11743942_at) / RFU ECM1 (11717891_a_at) / Fold change /veh ECM1 (11717891_a_at) / RFU IL23R (11748794_a_at) / Fold change /veh IL23R (11748794_a_at) / RFU TNFAIP8L3 (11732012_x_at) / Fold change /veh TNFAIP8L3 (11732012_x_at) / RFU MBOAT4 (11741988_at) / Fold change /veh MBOAT4 (11741988_at) / RFU 11764193_at / Fold change /veh 11764193_at / RFU TMEM53 (11763286_at) / Fold change /veh TMEM53 (11763286_at) / RFU MAGEB2 (11727129_at) / Fold change /veh MAGEB2 (11727129_at) / RFU TMEM200A (11744735_a_at) / Fold change /veh TMEM200A (11744735_a_at) / RFU CCDC152 (11751479_a_at) / Fold change /veh CCDC152 (11751479_a_at) / RFU FAM211A (11726209_a_at) / Fold change /veh FAM211A (11726209_a_at) / RFU RGS16 (11746705_a_at) / Fold change /veh RGS16 (11746705_a_at) / RFU VCAN (11755009_s_at) / Fold change /veh VCAN (11755009_s_at) / RFU RHOB (11743442_s_at) / Fold change /veh RHOB (11743442_s_at) / RFU RGS16 (11720943_a_at) / Fold change /veh RGS16 (11720943_a_at) / RFU RGS16 (11720944_at) / Fold change /veh RGS16 (11720944_at) / RFU, VPS4B / Fold change vs veh, VPS4B / RFU, CREB1 / Fold change vs veh, CREB1 / RFU, DNAJC13 / Fold change vs veh, DNAJC13 / RFU, GNAQ / Fold change vs veh, GNAQ / RFU, CDK5R1 / Fold change vs veh, CDK5R1 / RFU, ZRANB3 / Fold change vs veh, ZRANB3 / RFU, CUL4A / Fold change vs veh, CUL4A / RFU, CCNY / Fold change vs veh, CCNY / RFU, UFL1 / Fold change vs veh, UFL1 / RFU, COG3 / Fold change vs veh, COG3 / RFU, DIAPH2 / Fold change vs veh, DIAPH2 / RFU, SKA2 / Fold change vs veh, SKA2 / RFU, AFF3 / Fold change vs veh, AFF3 / RFU, LMF1 / Fold change vs veh, LMF1 / RFU, IPO11 / Fold change vs veh, IPO11 / RFU, DFFB / Fold change vs veh, DFFB / RFU, FOXP1 / Fold change vs veh, FOXP1 / RFU, CARD8 / Fold change vs veh, CARD8 / RFU, STRN3 / Fold change vs veh, STRN3 / RFU, ADK / Fold change vs veh, ADK / RFU, RASSF2 / Fold change vs veh, RASSF2 / RFU, WIPF1 / Fold change vs veh, WIPF1 / RFU, LARP1B / Fold change vs veh, LARP1B / RFU, RASA1 / Fold change vs veh, RASA1 / RFU, RB1 / Fold change vs veh, RB1 / RFU, PPFIA1 / Fold change vs veh, PPFIA1 / RFU, MAT2A / Fold change vs veh, MAT2A / RFU, CCT5 / Fold change vs veh, CCT5 / RFU, WDR92 / Fold change vs veh, WDR92 / RFU, CUX1 / Fold change vs veh, CUX1 / RFU, TTC7A / Fold change vs veh, TTC7A / RFU, TMEM135 / Fold change vs veh, TMEM135 / RFU, DEPTOR / Fold change vs veh, DEPTOR / RFU, CPM / Fold change vs veh, CPM / RFU, DNAJB6 / Fold change vs veh, DNAJB6 / RFU, CACNA2D3 / Fold change vs veh, CACNA2D3 / RFU, DTX4 / Fold change vs veh, DTX4 / RFU, TFCP2 / Fold change vs veh, TFCP2 / RFU, GMCL1 /// GMCL1P1 / Fold change vs veh, GMCL1 /// GMCL1P1 / RFU, AEBP2 / Fold change vs veh, AEBP2 / RFU, SNHG1 /// SNORD22 /// SNORD25 /// SNORD26 /// SNORD27 /// SNORD28 /// SNORD29 /// SNORD31 / Fold change vs veh, SNHG1 /// SNORD22 /// SNORD25 /// SNORD26 /// SNORD27 /// SNORD28 /// SNORD29 /// SNORD31 / Fold change (Aza/veh), C12orf56 (ProbeSet 11735607_a_at) / Fold change (ACY-1035/veh), C12orf56 (ProbeSet 11735607_a_at) / Fold change (Aza/veh), FGFR1OP (ProbeSet 11751329_s_at) / Fold change (ACY-1035/veh), FGFR1OP (ProbeSet 11751329_s_at) / Fold change (Aza/veh), VPS36 (ProbeSet 11739960_a_at) / Fold change (ACY-1035/veh), VPS36 (ProbeSet 11739960_a_at) / RFU SYPL1 (11715823_x_at) / Fold change /veh SYPL1 (11715823_x_at) / RFU IGFBP7 (11715501_s_at) / Fold change /veh IGFBP7 (11715501_s_at) / RFU REEP3 (11722064_at) / Fold change /veh REEP3 (11722064_at) / RFU IGLL1 (11728026_x_at) / Fold change /veh IGLL1 (11728026_x_at): dose or concentration left out as unconfirmed
# Conditions: ProbeSet 11732165_x_at; LIST D
smiles,measurement,value
Nc1ncn([C@@H]2O[C@H](CO)[C@@H](O)[C@H]2O)c(=O)n1 [azacitidine],"RFU, LMF1",50.31 RFU
